According to patent US5631382A, “Fulgimide compound” (Tokuyama Corporation, priority 1994, dated 1997):

Key:
Type in all cases: physicochemical
[1] = Wear life (T 1/2) of polymer plate in xenon fade meter, JIS L0843 and JIS B7754; details: time until color density decreases to one-half the initial value
Source text: (§1) 0.04 Parts of fulgimide compounds shown in Table 3, 70 parts of tetraethyleneglycol dimethacrylate, 15 parts of triethyleneglycol dimethacrylate, 10 parts of glycidyl methacrylate, 5 parts of 2-hydroethylmethacrylate and 1 part of perbutyl ND as a polymerization catalyst, were sufficiently mixed together until they were completely dissolved. The mixture solution was poured into a mold constituted by a glass plate and a gasket of an ethylene/vinyl acetate copolymer, and its temperature was elevated in an air oven from 35° C. to 90° C. over a period of 20 hours to effect the polymerization. After the polymerization, the polymer was taken out from the glass mold.
(§2) The obtained polymer plate was irradiated with xenon light by using a Xenon Long-Life Fade Meter FAL-25AX-HC (output: 2.5 KW, source of light: xenon long-life arc lamp) manufactured by Suga Shikenki Co., in order to measure a maximum absorption wavelength in a state of developing color. The initial color tone was observed by eyes, and YI of the samples was measured by using a color-difference meter (Model SM-4) manufactured by Suga Shikenki Co. The wear life (T 1/2) was also measured in compliance with JIS L0843 and JIS B7754. T 1/2 is defined to be the time until the color density decreases down to one-half the initial value when the polymer plate is irradiated with light by using the fade meter.
(§3) For the purpose of comparison, the fulgimide compounds represented by the following formulas (A) to (I) were also used to prepare polymer plates to measure their properties in the same procedure as described above. [drawing 113]

[2] = Initial color of polymer plate (visual observation, YI by color-difference meter); details: for Initial color, visually observed: before irradiation; for Initial color, YI: color-difference meter SM-4
Source text: as §1, §2, §3

[3] = Developed color of polymer plate under xenon light (color density, maximum absorption wavelength); details: for Color density: 0.04 parts in polymer plate; for λ max: state of developing color, polymer plate
Source text: as §1, §2, §3

Row | Structure (SMILES) | T1/2 [1] | Initial color, visually observed [2] | Initial color, YI [2] | Color density [3] | λ max [3]
1 | CCN1C(=O)C2=C(C)c3ccsc3C3(C4CC5CC(C4)CC3C5)C2C1=O (stereo not drawn) [A, reference compound] | 100 h | yellow | 10.03 | 0.68 | 540 nm
2 | CC1=C2C(=O)N(CC#N)C(=O)C2C2(c3oc(-c4ccccc4)cc31)C1CC3CC(C1)CC2C3 (stereo not drawn) [B, reference compound] | 95 h | yellow | 10.65 | 0.75 | 550 nm
3 | COc1ccc(-c2cc3c(o2)C2(C4CC5CC(C4)CC2C5)C2C(=O)N(CC#N)C(=O)C2=C3C)cc1 (stereo not drawn) [C, reference compound] | 95 h | yellow | 17.56 | 0.77 | 560 nm
4 | N#CN1C(=O)C2=C(C3CC3)c3ccsc3C3(C4CC5CC(C4)CC3C5)C2C1=O (stereo not drawn) [Compound 1, N-Cyano-4-cyclopropyl-6,7-dihydrospirobenzothiophenedicarboxyimide-7,2'-tricyclo[3.3.1.1^3,7]decane] | 400 h | colorless | 1.85 | 0.65 | 615 nm
5 | CC(=O)N1C(=O)C2=C(C3CC3)c3ccsc3C3(C4CC5CC(C4)CC3C5)C2C1=O (stereo not drawn) [Compound 2, N-Acetyl-4-cyclopropyl-6,7-dihydrospirobenzothiophenedicarboxyimide-7,2'-tricyclo[3.3.1.1^3,7]decane] | 140 h | colorless | 2.01 | 1.20 | 560 nm
6 | O=C1C2=C(C3CC3)c3ccsc3C3(C4CC5CC(C4)CC3C5)C2C(=O)N1C(=O)c1ccccc1 (stereo not drawn) [Compound 3, N-Benzoyl-4-cyclopropyl-6,7-dihydrospirobenzothiophenedicarboxyimide-7,2'-tricyclo[3.3.1.1^3,7]decane] | 135 h | colorless | 3.84 | 0.90 | 570 nm
7 | CC(=O)N1C(=O)C2=C(C3CC3)c3cc(C)sc3C3(C4CC5CC(C4)CC3C5)C2C1=O (stereo not drawn) [Compound 4, N-Acetyl-4-cyclopropyl-6,7-dihydro-2-methylspirobenzothiophenedicarboxyimide-7,2'-tricyclo[3.3.1.1^3,7]decane] | 140 h | colorless | 2.15 | 1.43 | 562 nm
8 | CC1=C2C(=O)N(C#N)C(=O)C2C2(c3oc(-c4ccccc4)cc31)C1CC3CC(C1)CC2C3 (stereo not drawn) [Compound 5] | 260 h | colorless | 3.96 | 1.12 | 603 nm
9 | CC(C)C1=C2C(=O)N(S(C)(=O)=O)C(=O)C2C2(c3c1ccn3C)C1CC3CC2CC(Cl)(C3)C1 (stereo not drawn) [Compound 6, 5'-Chloro-6,7-dihydro-N-methyl-N'-methylsulfonyl-4-isopropylspiroindoledicarboxyimide-7,2'-tricyclo[3.3.1.1^3,7]decane] | 110 h | pale yellow | 4.85 | 0.95 | 601 nm
10 | CCC1=C2C(=O)N(C(=O)C(Cl)(Cl)Cl)C(=O)C2C2(c3sc4cc(OC)ccc4c31)C1CC3CC(Cl)(C1)CC2(Cl)C3 (stereo not drawn) [Compound 7, 3',5'-Dichloro-3,4-dihydro-1-ethyl-7-methoxy-N-trichloromethylcarbonylspirodibenzo[5,6-b:d]thiophenedicarboxyimide-4,2'-tricyclo[3.3.1.1^3,7]decane] | 100 h | colorless | 2.15 | 0.85 | 550 nm
11 | COc1ccc(C2=C3C(=O)N(C(=O)c4ccccc4)C(=O)C3C3(c4oc5ccccc5c42)C2CC4CC3CC(C)(C4)C2)cc1 (stereo not drawn) [Compound 8, N-Benzoyl-3,4-dihydro-5'-methyl-1-(p-methoxyphenyl)spirobenzo[5,6-b:d]furandicarboxyimide-4,2-tricyclo[3.3.1.1^3,7]decane] | 110 h | colorless | 3.94 | 0.98 | 541 nm
12 | COC12CC3CC(C1)C1(c4c(c5ccccc5n4-c4ccccc4)C(C4CC4)=C4C(=O)N(C(Cl)(Cl)Cl)C(=O)C41)C(C3)C2 (stereo not drawn) [Compound 9] | 145 h | colorless | 3.85 | 1.02 | 610 nm
13 | O=C1C2=C(C3CC3)c3c(sc4c3CCCC4)C3(C4CC5CC(C4)CC3C5)C2C(=O)N1S(=O)(=O)c1ccccc1 (stereo not drawn) [Compound 10] | 140 h | pale yellow | 4.99 | 1.12 | 620 nm

More lines, now with the values ahead:

Row | T1/2 [1] | Initial color, visually observed [2] | Initial color, YI [2] | Color density [3] | λ max [3] | Structure (SMILES)
14 | 100 h | colorless | 2.35 | 0.88 | 630 nm | CC1=C2C(=O)N(C(=O)c3cccc(C#N)c3)C(=O)C2C2(c3c1c1c(n3C)CCCC1)C1CC3CC(F)(C1)CC2(F)C3 (stereo not drawn) [Compound 11]
15 | 140 h | colorless | 2.25 | 1.02 | 593 nm | CC12CCCC(CCC1)C21c2sc([N+](=O)[O-])cc2C(C2CC2)=C2C(=O)N(C(=O)c3c(F)c(F)c(F)c(F)c3F)C(=O)C21 (stereo not drawn) [Compound 12]
16 | 100 h | pale yellow | 4.89 | 0.75 | 603 nm | Cn1c(Cl)cc2c1C1(C3CCCC1(Cl)CCC3)C1C(=O)N(C(F)(F)F)C(=O)C1=C2c1ccccc1 (stereo not drawn) [Compound 14]
17 | 110 h | colorless | 2.95 | 0.85 | 520 nm | CCOC(=O)N1C(=O)C2=C(C)c3c(sc4ccccc34)C3(C4CCCC3(OC)CCC4)C2C1=O (stereo not drawn) [Compound 15]
18 | 100 h | colorless | 3.56 | 1.05 | 625 nm | CC(=O)N1C(=O)C2=C(C)c3c4c(n(-c5ccccc5)c3C3(C5CCCC3CCC5)C2C1=O)CCCC4 (stereo not drawn) [Compound 16]
19 | 140 h | colorless | 3.10 | 1.10 | 610 nm | CCCCC12CCC(CC1)C21c2sc(C)c(CC)c2C(C2CC2)=C2C(=O)N(C(=O)c3cccc(C(F)(F)F)c3)C(=O)C21 (stereo not drawn) [Compound 17]
20 | 250 h | colorless | 2.95 | 1.11 | 613 nm | N#CN1C(=O)C2=C(c3ccoc3)c3ccoc3C3(C4CCC3CC4)C2C1=O (stereo not drawn) [Compound 18]
21 | 110 h | colorless | 3.05 | 0.81 | 603 nm | CSc1cc2c(n1C)C1(C3C(=O)N(C(F)(F)F)C(=O)C3=C2C(C)C)C2(C)CCC1(C)CC2 (stereo not drawn) [Compound 19]
22 | 100 h | pale yellow | 4.85 | 0.95 | 548 nm | CCOC12CCC(CC1)C21c2sc3ccccc3c2C(CC)=C2C(=O)N(S(=O)(=O)CC)C(=O)C21 (stereo not drawn) [Compound 20]
23 | 115 h | colorless | 2.95 | 0.95 | 540 nm | O=C1C2=C(c3ccccc3)c3c(oc4ccccc34)C3(C4CCC3CC4)C2C(=O)N1C(Cl)(Cl)Cl (stereo not drawn) [Compound 21]
24 | 140 h | colorless | 2.36 | 0.87 | 600 nm | CC(=O)N1C(=O)C2=C(C3CC3)c3c(sc4c3CCCC4)C3(C4CCC3CC4)C2C1=O (stereo not drawn) [Compound 23]
25 | 140 h | colorless | 2.45 | 0.94 | 576 nm | CCCC1=C2C(=O)N(C(Cl)(Cl)Cl)C(=O)C2C2(c3oc4c(c31)CCCC4)C1CCC2CC1 (stereo not drawn) [Compound 24]
26 | 100 h | colorless | 3.26 | 0.71 | 619 nm | CC1=C2C(=O)N(S(=O)(=O)c3cc(Cl)cc(Cl)c3)C(=O)C2C2(c3c1c1c(n3-c3ccccc3)CCCC1)C1CCC2CC1 (stereo not drawn) [Compound 25]
27 | 120 h | colorless | 3.84 | 0.54 | 546 nm | COc1c(C)sc2c1C1(C3CC4CC(C3)CC1C4)C1C(=O)N(C(=O)Oc3ccccc3)C(=O)C1=C2C (stereo not drawn) [Compound 26]
